Results reported in patent publication US20140255392A1 (BAYER INTELLECTUAL PROPERTY GMBH, priority 2011, published 2014).

Biological target: T1, human kinase Mps-1 (Homo sapiens, UniProt P33981)
T1 construct: N-terminally GST-tagged human full length recombinant Mps-1 kinase; GST (N); purchased Invitrogen, Karslruhe, Germany PV4071
T1 sequence (P33981 1-857): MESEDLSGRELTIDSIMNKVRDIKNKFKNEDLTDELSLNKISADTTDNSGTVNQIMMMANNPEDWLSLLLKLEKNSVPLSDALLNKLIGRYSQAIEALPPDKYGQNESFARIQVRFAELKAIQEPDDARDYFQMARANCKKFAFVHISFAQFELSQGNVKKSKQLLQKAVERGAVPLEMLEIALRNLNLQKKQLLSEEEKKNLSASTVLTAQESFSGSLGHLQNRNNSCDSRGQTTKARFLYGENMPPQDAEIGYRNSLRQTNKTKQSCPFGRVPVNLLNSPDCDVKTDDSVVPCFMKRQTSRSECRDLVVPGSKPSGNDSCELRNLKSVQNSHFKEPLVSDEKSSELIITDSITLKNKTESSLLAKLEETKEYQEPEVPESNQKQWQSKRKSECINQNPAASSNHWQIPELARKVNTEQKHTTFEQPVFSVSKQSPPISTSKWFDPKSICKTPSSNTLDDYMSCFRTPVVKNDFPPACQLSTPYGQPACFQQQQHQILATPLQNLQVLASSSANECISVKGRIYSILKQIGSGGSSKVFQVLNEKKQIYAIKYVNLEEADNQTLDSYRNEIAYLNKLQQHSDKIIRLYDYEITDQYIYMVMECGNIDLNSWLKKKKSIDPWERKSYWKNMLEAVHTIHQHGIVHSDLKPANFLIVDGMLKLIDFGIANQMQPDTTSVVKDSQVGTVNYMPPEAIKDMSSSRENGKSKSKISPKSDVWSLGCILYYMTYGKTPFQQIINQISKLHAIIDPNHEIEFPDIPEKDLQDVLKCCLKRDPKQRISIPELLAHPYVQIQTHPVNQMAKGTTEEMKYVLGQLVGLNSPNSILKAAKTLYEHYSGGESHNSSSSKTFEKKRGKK
Experiment: Mps-1 kinase assay (TR-FRET)
Format: biochemical
Conditions: N-terminally GST-tagged human full length recombinant Mps-1; 10 μM ATP; 1 μM peptide substrate; 60 min at 22° C.
Summary of the method: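 Compounds were tested against recombinant full-length Mps-1 bearing an N-terminal GST tag, about 1 nM final, with a biotinylated amide-capped peptide as substrate. Detection reagents were then bound for 1 h at 22° C and the product read by TR-FRET.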

SMILES	IC50 [nM]
Cc1cc(-c2cnc3c(NCCC(F)(F)F)cc(Oc4cccc(OC(F)(F)F)c4)cn23)ccc1C(=O)NC1(C#N)CC1 [Example 75, N-(1-cyanocyclopropyl)-2-methyl-4-{6-[3-(trifluoromethoxy)phenoxy]-8-[(3,3,3-trifluoropropyl)amino]imidazo[1,2-a]pyridin-3-yl}benzamide]	157
CCNC(=O)c1ccc(-c2cnc3c(NCCC(F)(F)F)cc(CCCO)cn23)cc1C [Example 127, N-ethyl-4-{6-(3-hydroxypropyl)-8-[(3,3,3-trifluoropropyl)amino]imidazo[1,2-a]pyridin-3-yl}-2-methylbenzamide]	62.5
CNC(=O)c1ccc(-c2cnc3c(NCCC(F)(F)F)cc(CCO)cn23)cc1C [Example 142, 4-{6-(2-Hydroxyethyl)-8-[(3,3,3-trifluoropropyl)amino]imidazo[1,2-a]pyridin-3-yl}-N,2-dimethylbenzamide]	244
CNC(=O)c1ccc(-c2cnc3c(NCCC(F)(F)F)cc(Oc4ccc(OC(F)(F)F)cc4)cn23)cc1C [Example 67, N,2-dimethyl-4-{6-[4-(trifluoromethoxy)phenoxy]-8-[(3,3,3-trifluoropropyl)amino]imidazo[1,2-a]pyridin-3-yl}benzamide]	72.8
Cc1cc(-c2cnc3c(NCCC(F)(F)F)cc(Oc4cncc(F)c4)cn23)ccc1C(=O)NC1CC1 [Example 177, N-cyclopropyl-4-{6-[(5-fluoropyridin-3-yl)oxy]-8-[(3,3,3-trifluoropropyl)amino]imidazo[1,2-a]pyridin-3-yl}-2-methylbenzamide]	20.4
Cc1cc(-c2cnc3c(NCCC(F)(F)F)cc(Oc4ccccc4)cn23)ccc1C(=O)NC1(C#N)CC1 [Example 57, N-(1-cyanocyclopropyl)-2-methyl-4-{6-phenoxy-8-[(3,3,3-trifluoropropyl)amino]imidazo[1,2-a]pyridin-3-yl}benzamide]	12.6
CNC(=O)c1ccc(-c2cnc3c(NCCC(F)(F)F)cc(Oc4cccc(Cl)c4)cn23)cc1C [Example 34, 4-{6-(3-chlorophenoxy)-8-[(3,3,3-trifluoropropyl)amino]imidazo[1,2-a]pyridin-3-yl}-N,2-dimethylbenzamide]	6.2
C/C=C/c1cc(NCCC(F)(F)F)c2ncc(-c3ccc(C(=O)NC)c(C)c3)n2c1 [Example 112, N,2-dimethyl-4-{6-[(1E)-prop-1-en-1-yl]-8-[(3,3,3-trifluoropropyl)amino]imidazo[1,2-a]pyridin-3-yl}benzamide]	21.8
COc1c(F)cccc1Oc1cc(NCCC(F)(F)F)c2ncc(-c3ccc(C(=O)NC4CC4)c(C)c3)n2c1 [Example 146, N-cyclopropyl-4-{6-(3-fluoro-2-methoxyphenoxy)-8-[(3,3,3-trifluoropropyl)amino]imidazo[1,2-a]pyridin-3-yl}-2-methylbenzamide]	3.2
Cc1cc(-c2cnc3c(NCCC(F)(F)F)cc(Oc4cccc(OC(F)(F)F)c4)cn23)ccc1C(=O)NC1CC1 [Example 74, N-cyclopropyl-2-methyl-4-{6-[3-(trifluoromethoxy)phenoxy]-8-[(3,3,3-trifluoropropyl)amino]imidazo[1,2-a]pyridin-3-yl}benzamide]	6.8
Cc1ccc(F)cc1Oc1cc(NCCC(F)(F)F)c2ncc(-c3ccc(C(=O)NC4(C)CC4)c(C)c3)n2c1 [Example 27, 4-{6-(5-Fluoro-2-methylphenoxy)-8-[(3,3,3-trifluoropropyl)amino]imidazo[1,2-a]pyridin-3-yl}-2-methyl-N-(1-methylcyclopropyl)benzamide]	4.2
C=Cc1cc(NCCC(F)(F)F)c2ncc(-c3ccc(C(=O)NC4(C#N)CC4)c(C)c3)n2c1 [Example 96, N-(1-cyanocyclopropyl)-2-methyl-4-{8-[(3,3,3-trifluoropropyl)amino]-6-vinylimidazo[1,2-a]pyridin-3-yl}benzamide]	123
COc1cccc(Oc2cc(NCCC(F)(F)F)c3ncc(-c4ccc(C(=O)NC5(C)CC5)c(C)c4)n3c2)c1 [Example 54, 4-{6-(3-Methoxyphenoxy)-8-[(3,3,3-trifluoropropyl)amino]imidazo[1,2-a]pyridin-3-yl}-2-methyl-N-(1-methylcyclopropyl)benzamide]	16
COCCNc1cc(Oc2cccc(F)c2)cn2c(-c3ccc(C(=O)NC4CC4)c(C)c3)cnc12 [Example 169, N-cyclopropyl-4-{6-(3-fluorophenoxy)-8-[(2-methoxyethyl)amino]imidazo[1,2-a]pyridin-3-yl}-2-methylbenzamide]	21.7
COCCNc1cc(Oc2ccccc2C)cn2c(-c3ccc(C(=O)NC4CC4)c(C)c3)cnc12 [Example 170]	176
CCNC(=O)c1ccc(-c2cnc3c(NCCC(F)(F)F)cc(-c4ccccc4OC)cn23)cc1C [Example 82, N-ethyl-4-{6-(2-methoxyphenyl)-8-[(3,3,3-trifluoropropyl)amino]imidazo[1,2-a]pyridin-3-yl}-2-methylbenzamide]	21.3
Cc1cc(-c2cnc3c(NCCC(F)(F)F)cc(Oc4cc(F)ccc4O)cn23)ccc1C(=O)NC1CC1 [Example 175, N-cyclopropyl-4-{6-(5-fluoro-2-hydroxyphenoxy)-8-[(3,3,3-trifluoropropyl)amino]imidazo[1,2-a]pyridin-3-yl}-2-methylbenzamide]	3

These reach a lower IC50. Values come first.

IC50 [nM]	SMILES
1.8	Cc1cc(-c2cnc3c(NCCC(F)(F)F)cc(Oc4cccc(F)c4O)cn23)ccc1C(=O)NC1CC1 [Example 176, N-cyclopropyl-4-{6-(3-fluoro-2-hydroxyphenoxy)-8-[(3,3,3-trifluoropropyl)amino]imidazo[1,2-a]pyridin-3-yl}-2-methylbenzamide]
1.8	Cc1cc(-c2cnc3c(NCCC(F)(F)F)cc(Oc4cccc(F)c4F)cn23)ccc1C(=O)NC1(C)CC1 [Example 71, 4-{6-(2,3-Difluorophenoxy)-8-[(3,3,3-trifluoropropyl)amino]imidazo[1,2-a]pyridin-3-yl}-2-methyl-N-(1-methylcyclopropyl)benzamide]
1.5	CNC(=O)c1ccc(-c2cnc3c(NCCC(F)(F)F)cc(Oc4ccccc4)cn23)cc1C [Example 59, N,2-dimethyl-4-{6-phenoxy-8-[(3,3,3-trifluoropropyl)amino]imidazo[1,2-a]pyridin-3-yl}benzamide]
1.3	Cc1cc(-c2cnc3c(NCC(F)F)cc(Oc4cccc(F)c4F)cn23)ccc1C(=O)NC1CC1 [Example 163, N-cyclopropyl-4-{8-[(2,2-difluoroethyl)amino]-6-(2,3-difluorophenoxy)imidazo[1,2-a]pyridin-3-yl}-2-methylbenzamide]
1.3	CCNC(=O)c1ccc(-c2cnc3c(NCCC(F)(F)F)cc(Oc4cccc(O)c4)cn23)cc1C [Example 138, N-ethyl-4-{6-(3-hydroxyphenoxy)-8-[(3,3,3-trifluoropropyl)amino]imidazo[1,2-a]pyridin-3-yl}-2-methylbenzamide]
0.7	Cc1ccc(F)cc1Oc1cc(NCCC(F)(F)F)c2ncc(-c3ccc(C(=O)NC4CC4)c(C)c3)n2c1 [Example 19, N-cyclopropyl-4-{6-(5-fluoro-2-methylphenoxy)-8-[(3,3,3-trifluoropropyl)amino]imidazo[1,2-a]pyridin-3-yl}-2-methylbenzamide]
0.6	CNC(=O)c1ccc(-c2cnc3c(NCCC(F)(F)F)cc(Oc4cccc(F)c4F)cn23)cc1C [Example 72, 4-{6-(2,3-Difluorophenoxy)-8-[(3,3,3-trifluoropropyl)amino]imidazo[1,2-a]pyridin-3-yl}-N,2-dimethylbenzamide]
0.5	Cc1cc(-c2cnc3c(NCCC(F)(F)F)cc(Sc4ccccc4)cn23)ccc1C(=O)NC1CC1 [Example 3-3, N-cyclopropyl-2-methyl-4-{6-(phenylsulfanyl)-8-[(3,3,3-trifluoropropyl)amino]imidazo[1,2-a]pyridin-3-yl} benzamide]
0.4	Cc1cc(-c2cc(NCC3CCOCC3)c3ncc(-c4ccc(C(=O)NC5CC5)c(C)c4)n3c2)ccc1C(=O)NC1CC1 [Example 9, 4,4′-{8-[(Tetrahydro-2H-pyran-4-ylmethyl)amino]imidazo[1,2-a]pyridine-3,6-diyl}bis(N-cyclopropyl-2-methylbenzamide)]
0.4	Cc1cc(-c2cnc3c(NCCC(F)(F)F)cc(Oc4cccc(F)c4F)cn23)ccc1C(=O)NC1CC1 [Example 30, N-cyclopropyl-4-{6-(2,3-difluorophenoxy)-8-[(3,3,3-trifluoropropyl)amino]imidazo[1,2-a]pyridin-3-yl}-2-methylbenzamide]
